According to ChEMBL document CHEMBL3217414, “Trifluoromethyl derivatives of canonical nucleosides: synthesis and bioactivity studies” (Medchemcomm, 2013):

What was measured:
Hepatitis B virus = test: Antiviral activity against Hepatitis B virus; assay type: functional, organism-based
L6 = test: Cytotoxicity against rat L6 cells assessed as inhibition of cell viability after 48 hrs by MTT assay; assay type: cell-based; conditions: for IC50: Rattus norvegicus, L6, 48 h
HaCaT = test: Cytotoxicity against human HaCaT cells assessed as inhibition of cell viability after 48 hrs by MTT assay; assay type: cell-based; conditions: for IC50: Homo sapiens, HaCaT
DU-145 = test: Cytotoxicity against human DU145 cells assessed as inhibition of cell viability after 48 hrs by MTT assay; assay type: functional, cell-based; conditions: for IC50: DU-145, 48 h
C6 = test: Cytotoxicity against rat C6 cells assessed as inhibition of cell viability after 48 hrs by MTT assay; assay type: functional, cell-based; conditions: for IC50: C6, 48 h
MCF7 = test: Cytotoxicity against human MCF7 cells assessed as inhibition of cell viability after 48 hrs by MTT assay; assay type: functional, cell-based; conditions: for IC50: MCF7, 48 h

| Compound | IC50 (Hepatitis B virus) [µM] | IC50 (L6) [µM] | IC50 (HaCaT) [µM] | IC50 (DU-145) [µM] | IC50 (C6) [µM] | IC50 (MCF7) [µM] | inhibition (INH) (L6; rat, l6, 48 h) | inhibition (INH) (HaCaT; human, hacat) | inhibition (DU-145) | inhibition (C6) | inhibition (MCF7) |
| --- | --- | --- | --- | --- | --- | --- | --- | --- | --- | --- | --- |
| Nc1ccn([C@H]2C=C(C(F)(F)F)[C@@H](CO)O2)c(=O)n1 | 10 |  |  |  |  |  |  |  |  |  |  |
| Nc1ncnc2c1ncn2[C@H]1C[C@H](O)[C@@H](CO)O1 [DEOXYADENOSINE] |  | > 250 | > 250 | > 250 | > 250 | > 250 |  |  |  |  |  |
| O=c1[nH]cnc2c1nc(C(F)(F)F)n2[C@@H]1O[C@H](CO)[C@@H](O)[C@H]1O |  | 195 | 170 | 131 | 142 | 105 |  |  |  |  |  |
| Nc1nc2c(nc(C(F)(F)F)n2[C@H]2C[C@H](O)[C@@H](CO)O2)c(=O)[nH]1 |  | 234 | 210 | 72 | 92 | 76 | Dose-dependent effect | Dose-dependent effect | Dose-dependent effect | Dose-dependent effect | Dose-dependent effect |
| Nc1ccn([C@H]2C[C@H](O)[C@@H](CO)O2)c(=O)n1 [DOXECITINE] |  | > 250 | > 250 | > 250 | > 250 | > 250 |  |  |  |  |  |
| O=c1[nH]cnc2c1ncn2[C@@H]1O[C@H](CO)[C@@H](O)[C@H]1O [INOSINE] |  | > 250 | > 250 | > 250 | > 250 | > 250 |  |  |  |  |  |
| Nc1nc(O)c2ncn([C@H]3C[C@H](O)[C@@H](CO)O3)c2n1 [DEOXYGUANOSINE] |  | > 250 | > 250 | > 250 | > 250 | > 250 |  |  |  |  |  |
| Nc1nc(=O)n([C@H]2C[C@H](O)[C@@H](CO)O2)cc1C(F)(F)F |  | 155 | 140 | 25 | 44 | 32 |  |  |  |  |  |
| Nc1ncnc2c1nc(C(F)(F)F)n2[C@H]1C[C@H](O)[C@@H](CO)O1 |  | 225 | 214 | 50 | 81 | 65 |  |  |  |  |  |
| Nc1ncnc2c1ncn2[C@H]1C=C(C(F)(F)F)[C@@H](CO)O1 | 5 |  |  |  |  |  |  |  |  |  |  |
